Laboratory results as given in the Kinase Knowledgebase extract (Sharma et al. 2016).

Target: MAPK14 (human) (UniProt Q16539)
Assay: Inhibition of MAPK14 Kinase Activity

MAPK14 (human), sequence (Q16539 whole entry, looked up): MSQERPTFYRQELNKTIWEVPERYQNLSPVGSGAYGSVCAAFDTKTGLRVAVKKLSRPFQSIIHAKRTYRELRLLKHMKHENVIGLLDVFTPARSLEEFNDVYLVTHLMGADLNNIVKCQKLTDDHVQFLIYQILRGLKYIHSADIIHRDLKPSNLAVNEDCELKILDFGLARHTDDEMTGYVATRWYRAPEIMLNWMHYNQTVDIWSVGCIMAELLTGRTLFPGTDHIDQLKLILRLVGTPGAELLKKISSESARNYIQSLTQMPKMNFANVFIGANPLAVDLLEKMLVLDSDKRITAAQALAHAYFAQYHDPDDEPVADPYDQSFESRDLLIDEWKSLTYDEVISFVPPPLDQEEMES

SMILES | IC50 [µM]
Fc1ccc(-c2oncc2-c2ccnc(Cl)c2)cc1 | 42
CCCCCNc1cc(-c2c(C(C)C)noc2-c2ccc(F)cc2)ccn1 | 82
CCOc1cc(-c2c(C(C)C)noc2-c2ccc(F)cc2)ccn1 | 56
CCOc1cc(-c2cnoc2-c2ccc(F)cc2)ccn1 | 82
COc1cc(-c2cnoc2-c2ccc(F)cc2)ccn1 | 50
Fc1ccc(-c2oncc2-c2ccnc(Br)c2)cc1 | 89
CN1CCC(O)(c2nc(-c3ccc(F)cc3)c(-c3ccncc3)[nH]2)CC1 | 0.09
Fc1ccc(-c2oncc2-c2ccncc2)cc1 | 41
CN1CCC(O)(c2nc(-c3ccc(F)cc3)c(-c3ccncc3)o2)CC1 | 0.35

More lines, in order of falling IC50, values ahead:

IC50 [µM] | SMILES
34 | Fc1ccc(-c2oncc2-c2ccnc(OCCc3ccccc3)c2)cc1
31 | CC(C)Oc1cc(-c2cnoc2-c2ccc(F)cc2)ccn1
21 | CCCCOc1cc(-c2cnoc2-c2ccc(F)cc2)ccn1
4 | CCCNc1cc(-c2c(C(C)C)noc2-c2ccc(F)cc2)ccn1
2 | CN1CCC(O)(c2nc(-c3ccncc3)c(-c3ccc(F)cc3)o2)CC1
2 | CC(C)c1noc(-c2ccc(F)cc2)c1-c1ccnc(NC2CC2)c1
1.61 | Nc1onc(-c2ccncc2)c1-c1ccc(F)cc1
1.3 | CC(C)c1noc(-c2ccc(F)cc2)c1-c1ccnc(NCC2CC2)c1
1.22 | C[S+]([O-])c1ccc(-c2cc(-c3ccc(F)cc3)c(-c3ccncc3)[nH]2)cc1 (stereo not drawn)
1.22 | Fc1ccc(-c2conc2-c2ccncc2)cc1
0.63 | Fc1ccc(-c2oc(-c3ccc(Cl)cc3)cc2-c2ccncc2)cc1
0.55 | CC(C)c1noc(-c2ccc(F)cc2)c1-c1ccnc(NC(C)c2ccccc2)c1 (stereo not drawn)
0.2 | Fc1ccc(-c2[nH]c(-c3ccc(Cl)cc3)cc2-c2ccncc2)cc1
0.17 | Fc1ccc(-c2nc[nH]c2-c2ccncc2)cc1
